Patent US12102625B2, “Solid forms of FXR agonists” (Gilead Sciences, Inc., priority 2019, dated 2024)
Counter-ions that a name gives are not always drawn. Blank lines part the entries; values can stand above or below the compound they belong to.

Experiments:
[1] = Solid-form physical stability at ambient conditions / humidity; assay type: physicochemical
[2] = Slurry of the tromethamine salt in aqueous media (disproportionation); assay type: physicochemical

SMILES: O=C(O)c1ccnc(N2CC(O)(c3ccc(OCc4c(-c5c(Cl)cccc5Cl)noc4C4CC4)cc3Cl)C2)c1 [Formula I tromethamine salt ethanol solvate]
solid form conversion at ambient conditions ([1]; ambient conditions): converted to Formula I tromethamine salt hydrate I at ambient conditions

SMILES: O=C(O)c1ccnc(N2CC(O)(c3ccc(OCc4c(-c5c(Cl)cccc5Cl)noc4C4CC4)cc3Cl)C2)c1 [Formula I tromethamine salt Form II]
moisture absorption and form conversion ([1]; about >20% RH): rapidly absorbs moisture at about >20% RH and converts to Formula I tromethamine salt hydrate II

salt stability (disproportionation to zwitterion Form II) ([2]; MeOH/water (0.4-0.6 water activity)): disproportionation
salt stability in slurry (disproportionation to zwitterion hydrate) ([2]; slurry in water): disproportionation of the salt
SMILES: O=C(O)c1ccnc(N2CC(O)(c3ccc(OCc4c(-c5c(Cl)cccc5Cl)noc4C4CC4)cc3Cl)C2)c1 [Formula I tromethamine salt]

time to full conversion to Formula I tromethamine salt hydrate I ([1]; ambient conditions, depending on % RH): ≤ 1 h
SMILES: O=C(O)c1ccnc(N2CC(O)(c3ccc(OCc4c(-c5c(Cl)cccc5Cl)noc4C4CC4)cc3Cl)C2)c1

SMILES: O=C(O)c1ccnc(N2CC(O)(c3ccc(OCc4c(-c5c(Cl)cccc5Cl)noc4C4CC4)cc3Cl)C2)c1 [Formula I tromethamine salt MTBE solvate]
solid form conversion at ambient conditions ([1]; ambient conditions): converted to disordered material at ambient conditions

SMILES: O=C(O)c1ccnc(N2CC(O)(c3ccc(OCc4c(-c5c(Cl)cccc5Cl)noc4C4CC4)cc3Cl)C2)c1 [Formula I tromethamine salt methanol solvate I]
solid form conversion at ambient conditions ([1]; ambient conditions): loses methanol very rapidly at ambient conditions and converts to tromethamine salt methanol solvate III
